Values of other authors in US20220257611A1 (APTYS Pharmaceuticals SAS, priority 2019, published 2022).

How the values were obtained:
[1] = in vivo
[2] = in vivo; remark: listed apart in the source

| Compound | elimination half-life [1] | median effective analgesic dose (median value and 95% confidence interval) [2] |
| --- | --- | --- |
| CN1CCOC(c2ccccc2)c2ccccc2C1 (centres unmarked) [nefopam, 5-methyl-1-phenyl-1,3,4,6-tetrahydro-2,5-benzoxazocine] | four | – |
| CC(=O)Nc1ccc(O)cc1 [acetaminophen, N-acetyl-p-amino-phenol] | – | 500 mg |
